{"source": "patent US20060083830A1", "about": "“Polylysine-containing food additive and acidic adjuvant” (priority 2004, published 2006)", "key": {"Listeria monocytogenes [1]": {"test_system": "Listeria monocytogenes", "test": "Listeria monocytogenes on boiled dumpling sheets with ε-polylysine in the dough, vacuum sealed, 10° C., CFU determination", "details": "for Log Reduction: vs control Group A"}, "Listeria monocytogenes [2]": {"test_system": "Listeria monocytogenes", "test": "L. monocytogenes on cooked ground turkey balls blended with ε-polylysine, with or without 5 second acidic adjuvant spray, incubated at 8° C., CFU determination", "type": "cell-based", "details": "for Log Reduction: vs control", "protocol": "Four groups of 20 g ground uncooked turkey balls were prepared, with 54 balls prepared per group. […] Groups B-D were blended with varying amounts of ε-polylysine (“ε-PL”). Final concentrations of ε-polylysine within the turkey balls were:\nAfter preparation, all meatballs were placed on baking sheets and baked in a conventional oven at 350° F. for 20 minutes. After baking, the meatballs were packaged separately and stored at 4° C.\nThe mixture was further diluted 1:5000 times with sterile saline to produce a suspension for use. […] 20 microliters of the Listeria monocytogenes suspension was inoculated onto the exterior of each turkey ball. The turkey balls were incubated at room temperature for 30 min post-inoculation to allow bacteria to attach.\nEach group of meatballs (54 per group) was divided into two groups of 27 meatballs and labeled as control or treated meatballs as follows: AC, AT, BC, BT, CC, CT, DC and DT, respectively. Control meatballs labeled AC, BC, CC, and DC were sprayed for 5 seconds with sterile water. Treated meatballs labeled AT, BT, CT and DT were sprayed for 5 seconds with the acidic adjuvant prepared in Example 4 above (Safe2O®brandRTE 01, Mionix Corporation, Rocklin, Calif.) diluted 2 parts water to 1 part solution, having a final pH of about 1.5. After the spray treatment, the meatballs were packaged individually, vacuum sealed and incubated at 8° C.\nThe microbiological assay was performed after 24 hours, 1 week, 2 weeks, 3 weeks, and 4 weeks. After each designated time period had passed, three bags from each group of meat balls were unpacked, transferred to a stomacher bag along with 20 ml of sterile 0.1% peptone water. Each meatball was hand crushed and stomached at high speed for 2 minutes."}, "many bacteria": {"test_system": "many bacteria", "details": "Shima et al., 1984; Hiraki, 2000; cited from earlier work"}, "[3]": {"details": "rats, two generations; Neda et al., 1999; cited from earlier work"}}, "note": "Several values for one entry are separate records, joined by “and”; a condition that tells them apart may be missing. Equal values may be shown once.", "data": [{"substance": "poly(imino(2-amino-1-oxo-1,6-hexanediyl)) [ε-PL]", "values": [{"measurement": "CFU/dumpling", "setting": "Listeria monocytogenes [1]; 1000 ppm ε-PL, after 1 hour", "value": "3.80E+02 CFU/dumpling and 4.00E+02 CFU/dumpling and 2.00E+02 CFU/dumpling"}, {"measurement": "average Log Value", "setting": "Listeria monocytogenes [1]; 1000 ppm ε-PL, after 1 hour", "value": 2.15}, {"measurement": "average of CFU/dumpling", "setting": "Listeria monocytogenes [1]; 1000 ppm ε-PL, after 1 hour", "value": "3.27E+02", "unit": "CFU/dumpling"}, {"measurement": "Log Reduction", "setting": "Listeria monocytogenes [1]; 1000 ppm ε-PL, after 1 hour", "value": 0.89}, {"measurement": "average Log Value", "setting": "Listeria monocytogenes [1]; 1000 ppm ε-PL, after 24 hours", "value": 2.32}, {"measurement": "average of CFU/dumpling", "setting": "Listeria monocytogenes [1]; 1000 ppm ε-PL, after 24 hours", "value": "2.10E+02", "unit": "CFU/dumpling"}, {"measurement": "Log Reduction", "setting": "Listeria monocytogenes [1]; 1000 ppm ε-PL, after 24 hours", "value": 2.42}, {"measurement": "post-lethality effect", "setting": "Listeria monocytogenes [1]; 2000 ppm and above, limits of detection 10 CFU/piece", "value": "killed the Listeria down to the limits of detection"}, {"measurement": "CFU/dumpling", "setting": "Listeria monocytogenes [1]; 2000 ppm ε-PL, after 1 hour", "value": "<1.00E+01", "unit": "CFU/dumpling"}, {"measurement": "average Log Value", "setting": "Listeria monocytogenes [1]; 2000 ppm ε-PL, after 1 hour", "value": "<1.00"}, {"measurement": "average of CFU/dumpling", "setting": "Listeria monocytogenes [1]; 2000 ppm ε-PL, after 1 hour", "value": "<1.00E+01", "unit": "CFU/dumpling"}, {"measurement": "Log Reduction", "setting": "Listeria monocytogenes [1]; 2000 ppm ε-PL, after 1 hour", "value": ">2.41"}, {"measurement": "CFU/dumpling", "setting": "Listeria monocytogenes [1]; 2000 ppm ε-PL, after 24 hours", "value": "<1.00E+01", "unit": "CFU/dumpling"}, {"measurement": "average Log Value", "setting": "Listeria monocytogenes [1]; 2000 ppm ε-PL, after 24 hours", "value": "<1.00"}, {"measurement": "average of CFU/dumpling", "setting": "Listeria monocytogenes [1]; 2000 ppm ε-PL, after 24 hours", "value": "<1.00E+01", "unit": "CFU/dumpling"}, {"measurement": "Log Reduction", "setting": "Listeria monocytogenes [1]; 2000 ppm ε-PL, after 24 hours", "value": ">3.74"}, {"measurement": "CFU/dumpling", "setting": "Listeria monocytogenes [1]; 3000 ppm ε-PL, after 1 hour", "value": "<1.00E+01", "unit": "CFU/dumpling"}, {"measurement": "average Log Value", "setting": "Listeria monocytogenes [1]; 3000 ppm ε-PL, after 1 hour", "value": "<1.00"}, {"measurement": "average of CFU/dumpling", "setting": "Listeria monocytogenes [1]; 3000 ppm ε-PL, after 1 hour", "value": "<1.00E+01", "unit": "CFU/dumpling"}, {"measurement": "Log Reduction", "setting": "Listeria monocytogenes [1]; 3000 ppm ε-PL, after 1 hour", "value": ">2.41"}, {"measurement": "CFU/dumpling", "setting": "Listeria monocytogenes [1]; 3000 ppm ε-PL, after 24 hours", "value": "<1.00E+01", "unit": "CFU/dumpling"}, {"measurement": "average Log Value", "setting": "Listeria monocytogenes [1]; 3000 ppm ε-PL, after 24 hours", "value": "<1.00"}, {"measurement": "average of CFU/dumpling", "setting": "Listeria monocytogenes [1]; 3000 ppm ε-PL, after 24 hours", "value": "<1.00E+01", "unit": "CFU/dumpling"}, {"measurement": "Log Reduction", "setting": "Listeria monocytogenes [1]; 3000 ppm ε-PL, after 24 hours", "value": ">3.74"}, {"measurement": "replication of Listeria monocytogenes", "setting": "Listeria monocytogenes [1]; final concentration of 1000-3000 ppm in flour portion of dumpling", "value": "completely suppressed replication of Listeria monocytogenes"}, {"measurement": "average Log Value", "setting": "Listeria monocytogenes [2]; 1000 ppm ε-PL, after 1 week", "value": 5.38}, {"measurement": "average of CFU/g", "setting": "Listeria monocytogenes [2]; 1000 ppm ε-PL, after 1 week", "value": "2.41E+05", "unit": "CFU/g"}, {"measurement": "Log Reduction", "setting": "Listeria monocytogenes [2]; 1000 ppm ε-PL, after 1 week", "value": 2.99}, {"measurement": "average Log Value", "setting": "Listeria monocytogenes [2]; 1000 ppm ε-PL, after 2 weeks", "value": 4.76}, {"measurement": "average of CFU/g", "setting": "Listeria monocytogenes [2]; 1000 ppm ε-PL, after 2 weeks", "value": "5.72E+04", "unit": "CFU/g"}, {"measurement": "Log Reduction", "setting": "Listeria monocytogenes [2]; 1000 ppm ε-PL, after 2 weeks", "value": 4.09}, {"measurement": "average Log Value", "setting": "Listeria monocytogenes [2]; 1000 ppm ε-PL, after 3 weeks", "value": 5.94}, {"measurement": "average of CFU/g", "setting": "Listeria monocytogenes [2]; 1000 ppm ε-PL, after 3 weeks", "value": "8.75E+05", "unit": "CFU/g"}, {"measurement": "average Log Value", "setting": "Listeria monocytogenes [2]; 1000 ppm ε-PL, after 4 weeks", "value": 6.67}, {"measurement": "average of CFU/g", "setting": "Listeria monocytogenes [2]; 1000 ppm ε-PL, after 4 weeks", "value": "4.64E+06", "unit": "CFU/g"}, {"measurement": "Log Reduction", "setting": "Listeria monocytogenes [2]; 1000 ppm ε-PL, after 4 weeks", "value": 1.91}, {"measurement": "average Log Value", "setting": "Listeria monocytogenes [2]; 1000 ppm ε-PL, after 24 hours", "value": 2.22}, {"measurement": "average of CFU/g", "setting": "Listeria monocytogenes [2]; 1000 ppm ε-PL, after 24 hours", "value": "1.67E+02", "unit": "CFU/g"}, {"measurement": "Log Reduction", "setting": "Listeria monocytogenes [2]; 1000 ppm ε-PL, after 24 hours", "value": 1.48}, {"measurement": "average Log Value", "setting": "Listeria monocytogenes [2]; 2000 ppm ε-PL, after 1 week", "value": 1.40}, {"measurement": "average of CFU/g", "setting": "Listeria monocytogenes [2]; 2000 ppm ε-PL, after 1 week", "value": "2.53E+01", "unit": "CFU/g"}, {"measurement": "Log Reduction", "setting": "Listeria monocytogenes [2]; 2000 ppm ε-PL, after 1 week", "value": 6.97}, {"measurement": "average Log Value", "setting": "Listeria monocytogenes [2]; 2000 ppm ε-PL, after 2 weeks", "value": 4.27}, {"measurement": "average of CFU/g", "setting": "Listeria monocytogenes [2]; 2000 ppm ε-PL, after 2 weeks", "value": "1.88E+04", "unit": "CFU/g"}, {"measurement": "Log Reduction", "setting": "Listeria monocytogenes [2]; 2000 ppm ε-PL, after 2 weeks", "value": 4.57}, {"measurement": "average Log Value", "setting": "Listeria monocytogenes [2]; 2000 ppm ε-PL, after 3 weeks", "value": 2.95}, {"measurement": "average of CFU/g", "setting": "Listeria monocytogenes [2]; 2000 ppm ε-PL, after 3 weeks", "value": "8.96E+02", "unit": "CFU/g"}, {"measurement": "Log Reduction", "setting": "Listeria monocytogenes [2]; 2000 ppm ε-PL, after 3 weeks", "value": 5.33}, {"measurement": "average Log Value", "setting": "Listeria monocytogenes [2]; 2000 ppm ε-PL, after 4 weeks", "value": 3.86}, {"measurement": "average of CFU/g", "setting": "Listeria monocytogenes [2]; 2000 ppm ε-PL, after 4 weeks", "value": "7.18E+03", "unit": "CFU/g"}, {"measurement": "Log Reduction", "setting": "Listeria monocytogenes [2]; 2000 ppm ε-PL, after 4 weeks", "value": 4.72}, {"measurement": "average Log Value", "setting": "Listeria monocytogenes [2]; 2000 ppm ε-PL, after 24 hours", "value": 1.36}, {"measurement": "average of CFU/g", "setting": "Listeria monocytogenes [2]; 2000 ppm ε-PL, after 24 hours", "value": "2.27E+01", "unit": "CFU/g"}, {"measurement": "Log Reduction", "setting": "Listeria monocytogenes [2]; 2000 ppm ε-PL, after 24 hours", "value": 2.35}, {"measurement": "average Log Value", "setting": "Listeria monocytogenes [2]; 3000 ppm ε-PL, after 1 week", "value": "<0.94"}, {"measurement": "average of CFU/g", "setting": "Listeria monocytogenes [2]; 3000 ppm ε-PL, after 1 week", "value": "<8.67E+00", "unit": "CFU/g"}, {"measurement": "Log Reduction", "setting": "Listeria monocytogenes [2]; 3000 ppm ε-PL, after 1 week", "value": ">7.43"}, {"measurement": "average Log Value", "setting": "Listeria monocytogenes [2]; 3000 ppm ε-PL, after 2 weeks", "value": "<2.21"}, {"measurement": "average of CFU/g", "setting": "Listeria monocytogenes [2]; 3000 ppm ε-PL, after 2 weeks", "value": "<1.61E+02", "unit": "CFU/g"}, {"measurement": "Log Reduction", "setting": "Listeria monocytogenes [2]; 3000 ppm ε-PL, after 2 weeks", "value": "<6.64"}, {"measurement": "CFU/g", "setting": "Listeria monocytogenes [2]; 3000 ppm ε-PL, after 3 weeks", "value": "<2.00E+00", "unit": "CFU/g"}, {"measurement": "average Log Value", "setting": "Listeria monocytogenes [2]; 3000 ppm ε-PL, after 3 weeks", "value": "<0.30"}, {"measurement": "average of CFU/g", "setting": "Listeria monocytogenes [2]; 3000 ppm ε-PL, after 3 weeks", "value": "<2.00E+00", "unit": "CFU/g"}, {"measurement": "Log Reduction", "setting": "Listeria monocytogenes [2]; 3000 ppm ε-PL, after 3 weeks", "value": "<7.98"}, {"measurement": "average Log Value", "setting": "Listeria monocytogenes [2]; 3000 ppm ε-PL, after 4 weeks", "value": ">3.56"}, {"measurement": "average of CFU/g", "setting": "Listeria monocytogenes [2]; 3000 ppm ε-PL, after 4 weeks", "value": ">3.61E+03", "unit": "CFU/g"}, {"measurement": "Log Reduction", "setting": "Listeria monocytogenes [2]; 3000 ppm ε-PL, after 4 weeks", "value": "<5.02"}, {"measurement": "CFU/g", "setting": "Listeria monocytogenes [2]; 3000 ppm ε-PL, after 24 hours", "value": "1.40E+01 CFU/g and 1.60E+01 CFU/g and 1.00E+01 CFU/g"}, {"measurement": "average Log Value", "setting": "Listeria monocytogenes [2]; 3000 ppm ε-PL, after 24 hours", "value": 1.12}, {"measurement": "average of CFU/g", "setting": "Listeria monocytogenes [2]; 3000 ppm ε-PL, after 24 hours", "value": "1.33E+01", "unit": "CFU/g"}, {"measurement": "Log Reduction", "setting": "Listeria monocytogenes [2]; 3000 ppm ε-PL, after 24 hours", "value": 2.58}, {"measurement": "controlling the outgrowth of Listeria, ε-PL alone vs secondary acidic adjuvant spray for 5 sec", "setting": "Listeria monocytogenes [2]; Tables 2.1-2.5", "value": "more effective in controlling the outgrowth of Listeria than the effect of a secondary spray application of the acidic adjuvant"}, {"measurement": "minimum inhibitory concentration (MIC) for the growth of many bacteria", "setting": "many bacteria", "value": "below 100 μg mL^−1"}, {"measurement": "safety as a food additive", "setting": "[3]", "value": "no adverse reproductive toxological effects"}]}]}
